# In patent US20120202287A1, “Stem Cell Culture Methods” (priority 2009, published 2012):
# Test system: SA121 hESCs
# Test: General (monolayer) differentiation on matrigel in defined media, qRT-PCR of stem cell and differentiation markers after 14 days
# Assay type: cell-based, human
# Design: key to NO EHNA EFFECT: X: NO EHNA EFFECT; key to Full EHNA effect: those which maintained at least 50% of the level of NANOG-expression in comparison to EHNA and those that inhibited the expression of PAX6 to 50% or less than the value untreated controls were considered to have an EHNA-like effect
# Conditions: for PARTIAL EHNA EFFECT (PAX6): only PAX6 50% or less of untreated control; for stem cell marker expression (NANOG, ZFP42, POU5F1) in differentiating conditions: FIG. 9a; for NO EHNA EFFECT: neither NANOG nor PAX6 criterion met; for Full EHNA effect: NANOG at least 50% of EHNA level and PAX6 50% or less of untreated control; for prevention of differentiation of hESCs: FIG. 10; for NANOG expression in differentiating conditions: relative to untreated control
# Experimental: In order to ascertain the efficacy of the compounds of the present invention, each compound was tested to determine whether it can maintain the stem cell marker NANOG and/or block the differentiation marker PAX6 in the face of differentiating conditions in a manner similar to EHNA. Cells enzymatically passaged onto matrigel-coated dishes and grown for 2 weeks in defined media with or without (control) compound addition were analysed by qRT-PCR to determine the level of NANOG and PAX6 expression.
# For general differentiation experiments cells were passaged with trypsin onto matrigel coated twelve-well dishes in the fully supportive media (see above). The media was then changed to defined media 24 h later and any experimental component was first added at this point. The media and experimental supplement were changed daily.
# Cells were routinely harvested for qRT-PCR analysis 14 days after the first addition of the experimental compound.
# Total RNA was extracted using QIAGEN RNeasy kits (Qiagen Inc, Valencia, Calif., http://www.qiagen.com) and DNaseI treatment was performed using Turbo DNA-Free (Ambion). The absence of genomic DNA was confirmed by quantitative PCR (qPCR) (see below) using glyceraldehyde-3-phosphate dehydrogenase (GAPDH) Taqman primers and probe (MWG). cDNA was synthesized with 2 μg total RNA in 20 μl using Superscript II according to manufacturers' instructions ((Carlsbad, Calif., http://www.Invitrogen.com)). For qPCR, cDNAs were diluted 1 in 60 and 5 μl used per sample in a 15 μl total reaction volume. Platinum pPCR supermix UDG with Rox (Carlsbad, Calif., http://www.Invitrogen.com) was used according to the manufacturer's instructions using an Applied Biosystems 7300 real time PCR system (Applied Biosystems, Warrington, UK, http://europe.appliedbiosystems.com). Each reaction contained 0.6 μM of each primer and Taqman probe (MWG). Biological and technical replicates were each performed in triplicate for each sample, standardised to the GAPDH housekeeping gene and relative expression values were calculated using the 7300 system SDS software (Applied Biosystems, Warrington, UK, http://europe.appliedbiosystems.com).
# Cells were enzymatically passaged onto matrigel-coated dishes and grown for 2 weeks in defined media. After 14 days, qRT-PCR was utilised to analyse the expression of a variety of markers of pluripotency and differentiation. In the graphs in FIG. 9 the value 1 was set to the expression level of the gene in undifferentiated SA121 hESCs.
# Cells were enzymatically passaged onto matrigel-coated dishes and grown for 2 weeks in defined media (1× confluent T25 tissue culture flask was passaged to 2×12 well dishes) with or without (control) compound addition. All compounds were added at 10 uM and each was performed in triplicate. Media and compounds were changed every 48 hours. After 14 days RNA was isolated and qRT-PCR was utilised to analyse the expression of NANOG and PAX6. The results are illustrated in FIGS. 13 to 17.
# In the graphs in FIGS. 13, 14 15, 16 and 17 the value 1 was set relative to the expression level of the gene in the control (no compound) samples. […] This experiment allowed the effect of the EHNA-related compounds to be measured directly in comparison to EHNA. […] Those which had on effect, to these levels, on either PAX6 or NANOG were considered to have a partial-EHNA effect.
smiles,measurement,setting,value
"CCCCCC[C@@H]([C@@H](C)O)n1cnc2c(N(C)C)ncnc21.Cl [HWC17, erythro-3-[6-(dimethylamino)-9H-purin-9-yl]nonan-2-ol hydrochloride]",PARTIAL EHNA EFFECT (PAX6),"10 uM, 14 days, qRT-PCR","X (Those which had on effect, to these levels, on either PAX6 or NANOG were considered to have a partial-EHNA effect)"
"CCCCCCCC(CC)n1cnc2c(N)ncnc21 (racemic) [HWC63, (rac)-9-(decan-3-yl)-9H-purin-6-amine]",PARTIAL EHNA EFFECT (PAX6),"10 uM, 14 days, qRT-PCR","X (Those which had on effect, to these levels, on either PAX6 or NANOG were considered to have a partial-EHNA effect)"
"Nc1ncnc2nn(CCN3CCOCC3)cc12 [HWC29, 2-(2-morpholinoethyl)-2H-pyrazolo[3,4-d]pyrimidin-4-amine]",PARTIAL EHNA EFFECT (PAX6),"10 uM, 14 days, qRT-PCR","X (Those which had on effect, to these levels, on either PAX6 or NANOG were considered to have a partial-EHNA effect)"
"COc1ccc(Cc2nn3c([C@@H](CCCc4ccccc4)[C@@H](C)O)nc(C)c3c(=O)[nH]2)cc1OC [BAY-60-7550, reference compound]",PAX6 expression in differentiating conditions,"qRT-PCR, 14 days",nor did they inhibit PAX6 induction
same,"stem cell marker expression (NANOG, ZFP42, POU5F1) in differentiating conditions","qRT-PCR, 14 days",Neither BAY nor IBMX maintained stem cell marker expression
"CCCCCC[C@@H]([C@@H](C)O)n1cnc(C(N)=O)c1 [HWC36, erythro-1-(2-hydroxynonan-3-yl)-1H-imidazole-4-carboxamide]",NO EHNA EFFECT,"10 uM, 14 days, qRT-PCR",X
"CCCCCCCCCCn1cc2c(N)ncnc2n1.Cl [HWC6, 2-decyl-2H-pyrazolo[3,4-d]pyrimidin-4-amine hydrochloride]",Full EHNA effect,"10 uM, 14 days, qRT-PCR",X
same,prevention of differentiation of hESCs,,can prevent differentiation of hESCs
same,PAX6 expression in differentiating conditions,"qRT-PCR, 14 days",inhibiting PAX6 expression
same,NANOG expression in differentiating conditions,"qRT-PCR, 14 days",capable of maintaining NANOG
"CCCCCCCCn1ncc2c(N)ncnc21.Cl [HWC40, 1-octyl-1H-pyrazolo[3,4-d]pyrimidin-4-amine hydrochloride]",Full EHNA effect,"10 uM, 14 days, qRT-PCR",X
"CCCCCCC(C(C)O)n1cnc2c(S)ncnc21.Cl (stereo not drawn) [HWC13, erythro-3-(6-mercapto-9H-purin-9-yl)nonan-2-ol hydrochloride]",PARTIAL EHNA EFFECT (PAX6),"10 uM, 14 days, qRT-PCR","X (Those which had on effect, to these levels, on either PAX6 or NANOG were considered to have a partial-EHNA effect)"
"CCCCC[C@H]([C@H](C)O)n1cnc2c(N)ncnc21 [HWC59, (2S,3R)-3-(6-amino-9H-purin-9-yl)octan-2-ol]",NO EHNA EFFECT,"10 uM, 14 days, qRT-PCR",X
"CCCCCC[C@@H]([C@@H](C)O)n1nnc2c(N)ncnc21 [HWC26, erythro-3-(7-amino-3H-[1,2,3]triazolo[4,5-d]pyrimidin-3-yl)nonan-2-ol]",PARTIAL EHNA EFFECT (PAX6),"10 uM, 14 days, qRT-PCR","X (Those which had on effect, to these levels, on either PAX6 or NANOG were considered to have a partial-EHNA effect)"
"CCCCCC[C@H]([C@H](C)O)n1cnc2c(N)ncnc21 [HWC46, (2S,3R)-3-(6-amino-9H-purin-9-yl)nonan-2-ol]",Full EHNA effect,"10 uM, 14 days, qRT-PCR",X
"CCCCCCC(C(C)O)n1cnc2c(NC)ncnc21 (stereo not drawn) [HWC16, erythro-3-[6-(methylamino)-9H-purin-9-yl]nonan-2-ol]",PARTIAL EHNA EFFECT (PAX6),"10 uM, 14 days, qRT-PCR","X (Those which had on effect, to these levels, on either PAX6 or NANOG were considered to have a partial-EHNA effect)"
"CCCCCC[C@@H](O)[C@H](C)n1cnc2c(OC)ncnc21 [HWC51, (2S,3R)-2-(6-methoxy-9H-purin-9-yl)nonan-3-ol]",NO EHNA EFFECT,"10 uM, 14 days, qRT-PCR",X
"CCCCCCCCCCCn1ncc2c(N)ncnc21.Cl [HWC33, 1-undecyl-1H-pyrazolo[3,4-d]pyrimidin-4-amine hydrochloride]",Full EHNA effect,"10 uM, 14 days, qRT-PCR",X
"C[C@H]([C@@H](O)CCc1ccccc1)n1cnc2c(N)ncnc21.Cl [HWC42, (3S,4R)-4-(6-amino-9H-purin-9-yl)-1-phenylpentan-3-ol hydrochloride]",PARTIAL EHNA EFFECT (PAX6),"10 uM, 14 days, qRT-PCR","X (Those which had on effect, to these levels, on either PAX6 or NANOG were considered to have a partial-EHNA effect)"
"COc1ncnc2c1ncn2[C@H](C)[C@@H](O)CCc1ccccc1.Cl [HWC43, (3S,4R)-4-(6-methoxy-9H-purin-9-yl)-1-phenylpentan-3-ol hydrochloride]",NO EHNA EFFECT,"10 uM, 14 days, qRT-PCR",X
"CCCCCC[C@@H]([C@@H](C)O)n1cnc2c(OC)ncnc21 [HWC53, (2R,3S)-3-(6-methoxy-9H-purin-9-yl)nonan-2-ol]",NO EHNA EFFECT,"10 uM, 14 days, qRT-PCR",X
"COc1ncnc2c1ncn2[C@H](CCc1ccccc1)[C@H](C)O.Cl [HWC45, (2S,3R)-3-(6-methoxy-9H-purin-9-yl)-5-phenylpentan-2-ol hydrochloride]",NO EHNA EFFECT,"10 uM, 14 days, qRT-PCR",X
"CCCCCCCCCn1ncc2c(N)ncnc21.Cl [HWC31, 1-nonyl-1H-pyrazolo[3,4-d]pyrimidin-4-amine hydrochloride]",Full EHNA effect,"10 uM, 14 days, qRT-PCR",X
"CC(C)Cn1c(=O)n(C)c(=O)c2[nH]cnc21 [IBMX, 3-Isobutyl-1-methylxanthine, reference compound]",PAX6 expression in differentiating conditions,"qRT-PCR, 14 days",nor did they inhibit PAX6 induction
same,"stem cell marker expression (NANOG, ZFP42, POU5F1) in differentiating conditions","qRT-PCR, 14 days",Neither BAY nor IBMX maintained stem cell marker expression
"CCCCCCCCCn1cc2c(N)ncnc2n1.Cl [HWC30, 2-nonyl-2H-pyrazolo[3,4-d]pyrimidin-4-amine hydrochloride]",Full EHNA effect,"10 uM, 14 days, qRT-PCR",X
"CCC[C@H](O)[C@@H](C)n1cnc2c(N)ncnc21 [HWC61, (2R,3S)-2-(6-amino-9H-purin-9-yl)hexan-3-ol]",NO EHNA EFFECT,"10 uM, 14 days, qRT-PCR",X
"CCCCCCCCCCn1cnc2c(N)ncnc21 [HWC64, 9-(decan-1-yl)-9H-purin-6-amine]",Full EHNA effect,"10 uM, 14 days, qRT-PCR",X
"CCCCCC[C@@H]([C@@H](C)O)n1cnc2cncnc21 [HWC12, erythro-3-(9H-purin-9-yl)nonan-2-ol]",PARTIAL EHNA EFFECT (PAX6),"10 uM, 14 days, qRT-PCR","X (Those which had on effect, to these levels, on either PAX6 or NANOG were considered to have a partial-EHNA effect)"
"CCCCCC(CC)n1cnc2c(N)ncnc21 (racemic) [HWC62, (rac)-9-(octan-3-yl)-9H-purin-6-amine]",Full EHNA effect,"10 uM, 14 days, qRT-PCR",X
"CCCCCCC(C(C)O)n1cnc2cccnc21.Cl (stereo not drawn) [HWC-5, 3-(3H-imidazo[4,5-b]pyridin-3-yl)nonan-2-ol hydrochloride]",prevention of differentiation of hESCs,,can prevent differentiation of hESCs
same,PAX6 expression in differentiating conditions,"qRT-PCR, 14 days",inhibiting PAX6 expression
same,NANOG expression in differentiating conditions,"qRT-PCR, 14 days",capable of maintaining NANOG
"C[C@H](O)[C@@H](CCc1ccccc1)n1cnc2c(N)ncnc21.Cl [HWC44, (2S,3R)-3-(6-amino-9H-purin-9-yl)-5-phenylpentan-2-ol hydrochloride]",NO EHNA EFFECT,"10 uM, 14 days, qRT-PCR",X
"CCCCC[C@H](O)[C@@H](C)n1cnc2c(N)ncnc21 [HWC58, (2R,3S)-2-(6-amino-9H-purin-9-yl)octan-3-ol]",PARTIAL EHNA EFFECT (NANOG),"10 uM, 14 days, qRT-PCR, only NANOG at least 50% of EHNA level","X (Those which had on effect, to these levels, on either PAX6 or NANOG were considered to have a partial-EHNA effect)"
"CCCCCCC(CC)n1cnc2c(N)ncnc21 (racemic) [HWC57, (rac)-9-(Nonan-3-yl)-9H-purin-6-amine]",Full EHNA effect,"10 uM, 14 days, qRT-PCR",X
"CCCCCCC(C(C)O)n1cnc2c(O)ncnc21.Cl (stereo not drawn) [HWC14, erythro-9-(2-hydroxynonan-3-yl)-9H-purin-6-ol hydrochloride]",NO EHNA EFFECT,"10 uM, 14 days, qRT-PCR",X
"Nc1ncnc2c1cnn2CCN1CCOCC1 [HWC28, 1-(2-morpholinoethyl)-1H-pyrazolo[3,4-d]pyrimidin-4-amine]",PARTIAL EHNA EFFECT (PAX6),"10 uM, 14 days, qRT-PCR","X (Those which had on effect, to these levels, on either PAX6 or NANOG were considered to have a partial-EHNA effect)"
"CCCCCCC(C(C)O)n1cnc2c(Cl)ncnc21 (stereo not drawn) [HWC10, erythro-3-(6-Chloro-9H-purin-9-yl)nonan-2-ol]",PARTIAL EHNA EFFECT (PAX6),"10 uM, 14 days, qRT-PCR","X (Those which had on effect, to these levels, on either PAX6 or NANOG were considered to have a partial-EHNA effect)"
